PubChem BioAssay (NCI)
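Step 1: Grow cells in 96-well plates. Step 2: Expose to compound for 48 hours at 5 concentrations. Step 3: Interpolate endpoints linearly; if unreached, use highest concentration. GI50 = concentration required for 50% inhibition of growth. Definition used: TGI = concentration required for complete inhibition of growth.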

Assays:
Assay in all cases: NCI tumour cell line growth inhibition, 48 h
CAKI-1 renal = tested on: CAKI-1 renal
HOP-62 NSCLC = tested on: HOP-62 NSCLC
HS 578T breast = tested on: HS 578T breast
NCI-H460 lung = tested on: NCI-H460 lung
OVCAR-3 ovarian = tested on: OVCAR-3 ovarian
RPMI-8226 leukemia = tested on: RPMI-8226 leukemia
SNB-75 CNS = tested on: SNB-75 CNS
SW-620 colon = tested on: SW-620 colon
TK-10 renal = tested on: TK-10 renal
EKVX NSCLC = tested on: EKVX NSCLC

| Structure (SMILES) | GI50 (CAKI-1 renal) [µM] | TGI (CAKI-1 renal) [µM] | GI50 (HOP-62 NSCLC) [µM] | TGI (HOP-62 NSCLC) [µM] | GI50 (HS 578T breast) [µM] | TGI (HS 578T breast) [µM] | GI50 (NCI-H460 lung) [µM] | TGI (NCI-H460 lung) [µM] | GI50 (OVCAR-3 ovarian) [nM] | TGI (OVCAR-3 ovarian) [µM] | GI50 (RPMI-8226 leukemia) [µM] | TGI (RPMI-8226 leukemia) [µM] | GI50 (SNB-75 CNS) [µM] | TGI (SNB-75 CNS) [µM] | GI50 (SW-620 colon) [µM] | TGI (SW-620 colon) [µM] | GI50 (TK-10 renal) [µM] | TGI (TK-10 renal) [µM] | GI50 (EKVX NSCLC) [µM] | TGI (EKVX NSCLC) [µM] |
| --- | --- | --- | --- | --- | --- | --- | --- | --- | --- | --- | --- | --- | --- | --- | --- | --- | --- | --- | --- | --- |
| CC1=C(C)C(=O)O[C@@H]([C@](C)(O)[C@]2(O)CC[C@@]3(O)[C@@H]4C[C@H]5O[C@]56CC=CC(=O)[C@]6(C)[C@H]4CC[C@]23C)C1 | 0.18 | 2.11 | 0.292 | 3.39 | 0.127 | 2.33 | 0.618 | 2.4 | 66.7 | 0.405 | 0.0593 | 1.78 | 0.0322 | 1.2 | 0.0989 | 1.1 | 0.0482 | 0.995 |  |  |
| Cc1ncc(NC(=O)c2ccc(CN3CCN(C)CC3)c(C(F)(F)F)c2)cc1Nc1nccc(-c2cccnc2)n1 | 13.7 | 26.7 | 15.7 | 30.5 | 17.7 | 45.7 | 17.4 | 33 |  |  | 10 | 49.7 | 15.2 | 28.8 | 13.5 | 30.4 | 21.6 | 39.1 | 17.4 | 31.4 |
| Clc1cc(Cl)c2c(Cl)cc(Cl)c3c2c1N=S=N3 |  | > 100 |  |  |  |  |  |  |  | > 100 |  | > 100 |  | > 100 |  | > 100 |  | > 100 |  | > 100 |
| CC(C)(C)C1(O)Cc2ccccc2C(=O)O1 (stereo unspecified) |  | > 100 |  | > 100 |  |  |  | > 100 |  | > 100 |  |  |  | > 100 |  | > 100 |  | > 100 |  | > 100 |
| COC(=O)C(Cc1ccccc1)N/C=C\C(=O)c1ccc(Cl)cc1 (stereo unspecified) | 21.3 | 44.4 | 25.1 | 67.6 | 25 | 63.8 | 20.5 | 48.2 |  |  | 36.7 | > 100 | > 100 | > 100 | 31.7 | 97.2 |  |  |  |  |
| CN1CCN(C)C1c1cccc(C2N(C)CCN2C)c1 |  |  |  | > 100 |  |  |  | > 100 |  | > 100 |  | > 100 |  | > 100 |  |  |  |  |  |  |
| COc1ccc(C2C(N)=NCC2c2ccccn2)cc1 (stereo unspecified) |  | > 100 |  | > 100 |  |  |  | > 100 |  | > 100 |  | > 100 |  | > 100 |  | > 100 |  | > 100 |  | > 100 |
| CNc1nc(NC2CCCC2)nc(Sc2ccc(OC)cc2)n1 | > 10 | > 10 | > 10 | > 10 | > 10 | > 10 | > 10 | > 10 | > 10000 | > 10 | > 10 | > 10 | > 10 | > 10 | > 10 | > 10 | > 10 | > 10 |  |  |
| NS(=O)(=O)c1ccc(NC(=O)c2cccc3c(=O)c4ccccc4[nH]c23)cc1 |  | > 100 |  | > 100 |  |  |  | > 100 |  | > 100 |  | > 100 |  | 55.2 |  | > 100 |  | > 100 |  | > 100 |
| CC1CCCC(C(=O)/C(=C/c2cccc(Cl)c2)C(=O)C(=O)O)C1 (stereo unspecified) |  | > 100 |  | > 100 |  |  |  | > 100 |  | 55.4 |  | 38 |  | > 100 |  | 27.7 |  | > 100 |  | > 100 |
| Cc1ccc(-c2nc(C(Cl)Cl)n3nc(-c4ccccc4)cc3n2)cc1 | 0.31 | 1.49 | 0.566 | 3.15 | 1.2 | 3.96 | 0.273 | 1.05 | 222 | 0.586 | 0.499 | 3.11 | > 100 | > 100 | 0.392 | 2.35 |  |  |  |  |
| N#Cc1c(N)c(C(=O)O)nn(-c2cccc(C(F)(F)F)c2)c1=O |  | > 100 |  |  |  |  |  | > 100 |  | > 100 |  | > 100 |  | > 100 |  | > 100 |  | > 100 |  | > 100 |
| COC(=O)NC/C=C\c1nc(CC/C=C\C(=O)OC2CC3CC(=O)O[C@@H](/C=C/CC(C)C)C[C@@H]4CCC(C)C(C[C@@H](OC)CC(C2)O3)O4)co1 (stereo partly specified) | < 0.01 | 70.6 | < 0.01 | 79 | 32.8 | > 100 | < 0.01 | > 100 |  |  |  |  | > 100 | > 100 | < 0.01 | > 100 |  |  | < 0.01 | > 100 |
| Oc1c2c(c(O)c3ccccc13)=N[C@@H](c1ccccc1)[C@H](c1ccccc1)N=2 |  | > 100 |  | > 100 |  |  |  | > 100 |  | > 100 |  | > 100 |  | > 100 |  | > 100 |  | > 100 |  |  |
| CC/C=C\C/C=C\C1CC(=O)NCCCNCCCCN1 (stereo unspecified) |  | > 100 |  | > 100 |  |  |  | > 100 |  |  |  |  |  | > 100 |  | > 100 |  | > 100 |  | > 100 |
| C=C(COC(C)=O)CC(/C=C(\C)CCC=C(C)C)OC(C)=O (stereo unspecified) |  |  |  | > 100 |  |  |  | > 100 |  | > 100 |  |  |  | > 100 |  | > 100 |  | > 100 |  | > 100 |
| O=c1c2ccccc2c2c3c1cccc3c1cccc3c(=O)c4ccccc4c2c31 |  | > 100 |  | > 100 |  |  |  | > 100 |  | > 100 |  |  |  | > 100 |  | > 100 |  | > 100 |  | > 100 |
| O=C(Nc1ccc(S(=O)(=O)N[C@@H](C(=O)O)c2ccccc2)cc1)c1ccc(F)cc1 |  | > 100 |  |  |  |  |  | > 100 |  | > 100 |  | > 100 |  | > 100 |  | > 100 |  | > 100 |  | > 100 |
| CCCCCC(=O)Oc1ccc(/C(=C(\C)c2ccc(OC)cc2)c2ccc(OCCN3CCCCC3)cc2)cc1 |  |  | 5.73 | 19.8 | 4.76 | 25.1 | 4.42 | 15.8 | 11600 | 25.2 | 3.24 |  | 10.2 | 26.3 | 3.59 | 14 | 17.5 | 31.8 | 9.92 | 22.7 |
| O=C1c2ccccc2-c2cccc3ccc(Cc4ccccc4)c1c23 |  |  |  | > 100 |  |  |  | > 100 |  | > 100 |  | > 100 |  | > 100 |  | > 100 |  | > 100 |  | > 100 |
